Measurements reported in paper PMC8540097, “Novel Oleanolic Acid-Tryptamine and -Fluorotryptamine Amides: From Adaptogens to Agents Targeting In Vitro Cell Apoptosis” (Plants, 2021).
Several values for one entry are separate records, joined by “and”; a condition that tells them apart may be missing. Identical values can stand only once. Like-named read-outs stand apart in the source and are kept apart here.

Columns and labels:
[1] = tested on: CEM (T-lymphoblastic leukemia); assay: Cytotoxicity screening test, CEM cells (resazurin, 72 h); type: cell-based; details: Homo sapiens, CCRF-CEM
Method: (§1) The screening human cancer cell lines used in this investigation were CEM (T-lymphoblastic leukemia), MCF7 (breast carcinoma), HeLa (cervical carcinoma) and G-361 (malignant melanoma) from the European Collection of Authenticated Cell Cultures (Salisbury, UK). Human foreskin fibroblasts (BJ) were used as reference cells, and they were a kind gift from Prof. Bartek from Danish Cancer Society Center (Copenhagen, Denmark). Cells were cultured in DMEM (Dulbecco’s Modified Eagle Medium) or in RPMI 1640 medium (CEM). Media used were supplemented with 10% fetal or 20% (CEM) bovine serum, L-glutamine (2 mM), and 1% penicillin-streptomycin mixture (all from Sigma, MO, USA). The cell lines were maintained under standard cell culture conditions at 37 °C and 5% CO2 in a humid environment. Cells were subcultured twice or three times a week using the standard trypsinization procedure. A description of the experimental procedure used in the cytotoxicity screening tests was already published. The cell viability was measured after 72 h using resazurin (Sigma, St. Louis, MO, USA).

MCF7 (breast carcinoma) = assay: Cytotoxicity screening test, MCF7 cells (resazurin, 72 h); type: cell-based, human
Method: as §1

[2] = tested on: HeLa (cervical carcinoma); assay: Cytotoxicity screening test, HeLa cells (resazurin, 72 h); type: cell-based, human
Method: as §1

[3] = tested on: G-361 (malignant melanoma); assay: Cytotoxicity screening test, G-361 cells (resazurin, 72 h); type: cell-based, human
Method: as §1

[4] = Cytotoxicity screening test, BJ reference fibroblasts (resazurin, 72 h); type: cell-based; details: human, BJ foreskin fibroblasts (normal reference cells)
Method: as §1

[5] = tested on: cervical carcinoma cells (HeLa); assay: Flow cytometric analysis of cell cycle and apoptosis, HeLa cells; type: cell-based, human; details: 24 h
Method: (§2) A flow cytometric analysis, SDS–polyacrylamide gel electrophoresis and immunoblotting, and activities of caspase-3/7 were used to detect apoptosis in cervical carcinoma cells (HeLa) and malignant melanoma cells (G-361) treated for 24 h with 3a–3c (c = 3, 10 and 30 µM). The DNA content of HeLa or G-361 treated with 3a–3c for 24 h were analyzed using flow cytometry. Cells (HeLa and G-361), treated with the same concentrations of compounds for 24 h, were analyzed using electrophoresis and Western blotting, and the activity of caspase-3/7 by the standard methods. All experimental details of these methods were described in our recent paper.
Figure 1 Flow cytometric analysis of cell cycle of HeLa cancer cells (A) and apoptosis (B). Flow cytometric analysis of cell cycle (A) and apoptosis (B) of human cervical carcinoma cells (HeLa) after 24 h with 3a–3c (3, 10 and 30 µM). The bars 0 means control untreated cells, the bars 0+ means control with DMSO. The experiment was repeated at least twice in triplicates. All data were analyzed by statistical software. Significance is indicated with an asterisk (*) (p ˂ 0.05).

[6] = tested on: malignant melanoma cells (G-361); assay: Flow cytometric analysis of cell cycle and apoptosis, G-361 cells; type: cell-based, human; details: G-361, 24 h
Method: as §2
3. Apoptosis in human cancer cells.
A detailed description of investigation of apoptosis in the HeLa and G-361 cancer cells is given in the main text of this paper. Because the results achieved with the G-361 cancer cells appeared to be less pronounced than those achieved with the HeLa cells, Figures S1A, S1B, S2 and S3 showing the results with G-361 cells are presented in the Supplementary material.
Figure S1A and S1B. Flow cytometric analysis of cell cycle (A) and apoptosis (B) of human malignant melanoma cells (G-361) after 24 h with 3a–3c (3, 10 and 30 µM). The bars 0 means control untreated cells, the bars 0+ means control with DMSO. Error bars are omitted for graph clarity. Experiment was repeated at least twice in duplicates.
Figure S1A. Flow cytometric analysis of cell cycle of G-361 cancer cells.
(1 picture or pasted object on this page, not shown here)

[7] = tested on: caspase-3/7 in HeLa cells; assay: Activity of caspase-3/7 in HeLa cells; type: cell-based, human; details: 24 h, c = 30 µM, versus control
Method: as §2
Figure 3 Activity of caspase-3/7. Activity of caspase-3/7 after 24 h treatment with 3a–3c (3, 10 and 30 µM) in HeLa cells. The bars 0 are control untreated cells, the bars 0+ are control cells with DMSO. The experiment was repeated at least twice in duplicates. All data were analyzed by statistical software. Significance is indicated with an asterisk (*) (p ˂ 0.05).

[8] = Homo sapiens, MCF7, 72 h, resazurin, read-out: Cytotoxicity IC50, MCF7
[9] = Homo sapiens, HeLa, individual runs, Table S1, read-out: Cytotoxicity IC50, HeLa, single repeated screening runs (italics)
[10] = Homo sapiens, HeLa, resazurin, read-out: Cytotoxicity IC50, HeLa
[11] = individual runs, Table S1, read-out: Cytotoxicity IC50, HeLa, single repeated screening runs (italics)
[12] = Homo sapiens, G-361, 72 h, resazurin, read-out: Cytotoxicity IC50, G-361
[13] = individual runs, Table S1, read-out: Cytotoxicity IC50, G361, single repeated screening runs (italics)
[14] = Homo sapiens, MCF7, resazurin, read-out: Cytotoxicity IC50, MCF7
[15] = Homo sapiens, G-361, resazurin, read-out: Cytotoxicity IC50, G-361
[16] = individual runs, Table S1, read-out: Cytotoxicity IC50, MCF7, single repeated screening runs (italics)

Question: With `CC(=O)O[C@H]1CC[C@]2(C)[C@H]3CC=C4[C@@H]5CC(C)(C)CC[C@]5(C(=O)NCCc5c[nH]c6ccccc56)CC[C@@]4(C)[C@]3(C)CC[C@H]2C1(C)C` [Compound 3a, Tryptamine amide of (3β)-3-(acetyloxy)olean-12-en-28-oic acid] as the compound, how does the IC50 [1] read?
Answer: > 50 µM

Question: And the IC50 (MCF7 (breast carcinoma); [8])?
Answer: > 50 µM

Question: And the IC50 [2, 9]?
Answer: 8.4 µM

Question: What about the IC50 [2, 10] of the same compound?
Answer: 8.7 ± 0.4 µM

Question: What about the IC50 [2, 11] of the same compound?
Answer: 9 µM

Question: What about the IC50 ([3]; Homo sapiens, G-361, 72 h, individual runs, Table S1, read-out: Cytotoxicity IC50, G361, single repeated screening runs (italics)) of the same compound?
Answer: 8.7 µM

Question: And the IC50 [3, 12]?
Answer: 9 ± 0.4 µM

Question: And the IC50 [3, 13]?
Answer: 9.2 µM

Question: And the IC50 at 72 h [4]?
Answer: > 50 µM

Question: And the “Effect on cell cycle” value ([5]; c = 30 µM)?
Answer: cell cycle arrest in the G2/M phase

Question: And the “Induction of apoptosis (apoptotic cells)” value ([5]; c = 30 µM)?
Answer: 4%

Question: And the “Level of apoptotic cells in subG1 phase” value [6]?
Answer: up to 7.7%

Question: What about the “Effect on cell cycle” value ([6]; c = 10 µM) of the same compound?
Answer: increase of accumulation of the S-phase cells

Question: And the “Induction of caspase-3/7 activity” value [7]?
Answer: up to 4 times

Question: For `CC(=O)O[C@H]1CC[C@]2(C)[C@H]3CC=C4[C@@H]5CC(C)(C)CC[C@]5(C(=O)O)CC[C@@]4(C)[C@]3(C)CC[C@H]2C1(C)C` [Compound 2, (3β)-3-(acetyloxy)olean-12-en-28-oic acid], which IC50 [1] is on record?
Answer: > 50 µM

Question: What about the IC50 (MCF7 (breast carcinoma); [14]) of the same compound?
Answer: > 50 µM

Question: And the IC50 [2, 10]?
Answer: > 50 µM

Question: And the IC50 [3, 15]?
Answer: > 50 µM

Question: What about the IC50 at 72 h [4] of the same compound?
Answer: > 50 µM

Question: For `NCCc1c[nH]c2ccccc12` [tryptamine], which IC50 [1] is on record?
Answer: > 50 µM

Question: And the IC50 (MCF7 (breast carcinoma); [14])?
Answer: > 50 µM

Question: And the IC50 [2, 10]?
Answer: > 50 µM

Question: What about the IC50 [3, 15] of the same compound?
Answer: > 50 µM

Question: And the IC50 at 72 h [4]?
Answer: > 50 µM

Question: Which IC50 [1] does the source give for `CC1(C)CC[C@]2(C(=O)O)CC[C@]3(C)C(=CC[C@@H]4[C@@]5(C)CC[C@H](O)C(C)(C)[C@@H]5CC[C@]43C)[C@@H]2C1` [Compound 1, (3β)-3-hydroxyolean-12-en-28-oic acid, reference compound] here?
Answer: > 50 µM

Question: And the IC50 (MCF7 (breast carcinoma); [8])?
Answer: > 50 µM

Question: And the IC50 [2, 10]?
Answer: > 50 µM

Question: And the IC50 [3, 12]?
Answer: > 50 µM

Question: And the IC50 at 72 h [4]?
Answer: > 50 µM

Question: Which IC50 [1] does the source give for `CC1(C)CCC2(C(=O)NCCc3c[nH]c4cc(F)ccc34)CCC3(C)C(=CCC4C5(C)CCC(O)C(C)(C)C5CCC43C)C2C1` (stereo not drawn) [Compound 4b] here?
Answer: > 50 µM

Question: What about the IC50 (MCF7 (breast carcinoma); Homo sapiens, MCF7, 72 h, individual runs, Table S1, read-out: Cytotoxicity IC50, MCF7, single repeated screening runs (italics)) of the same compound?
Answer: 44.5 µM

Question: What about the IC50 (MCF7 (breast carcinoma); [8]) of the same compound?
Answer: > 50 µM

Question: What about the IC50 (MCF7 (breast carcinoma); [16]) of the same compound?
Answer: > 50 µM

Question: And the IC50 [2, 9]?
Answer: 27.3 µM

Question: What about the IC50 [2, 10] of the same compound?
Answer: 27.9 ± 0.8 µM

Question: And the IC50 [2, 11]?
Answer: 28.5 µM and > 50 µM

Question: What about the IC50 [3, 12] of the same compound?
Answer: > 50 µM

Question: What about the IC50 at 72 h [4] of the same compound?
Answer: > 50 µM

Question: And the melting point?
Answer: 149 to 150 °C

Question: Which results are given for `CC(=O)O[C@H]1CC[C@]2(C)[C@H]3CC=C4[C@@H]5CC(C)(C)CC[C@]5(C(=O)NCCc5c[nH]c6cc(F)ccc56)CC[C@@]4(C)[C@]3(C)CC[C@H]2C1(C)C` [Compound 3b]?
Answer: IC50 [1]: > 50 µM; IC50 (MCF7 (breast carcinoma); [8]): > 50 µM; IC50 [2, 10]: 6.7 ± 1.4 µM; IC50 [2, 11]: 7.7 µM and 13.1 µM and 5.7 µM; IC50 [3, 12]: 15.9 ± 6.6 µM; IC50 [3, 13]: > 50 µM and 23 µM and 9.9 µM and 14.9 µM; IC50 at 72 h [4]: > 50 µM; Induction of apoptosis (apoptotic cells) ([5]; c = 10 µM): up to 6.4%; Effect on cell cycle ([5]; c = 30 µM): increased the number of cells in the G2/M phase; Level of apoptotic cells in subG1 phase [6]: increased the level of apoptotic cells; Effect on cell cycle ([6]; c = 10 µM): increase of accumulation of the S-phase cells; Induction of caspase-3/7 activity [7]: up to 4.6 times; melting point: 139 to 140 °C

Question: Which IC50 [1] does the source give for `CC(=O)O[C@H]1CC[C@]2(C)[C@H]3CC=C4[C@@H]5CC(C)(C)CC[C@]5(C(=O)NCCc5c[nH]c6ccc(F)cc56)CC[C@@]4(C)[C@]3(C)CC[C@H]2C1(C)C` [Compound 3c] here?
Answer: > 50 µM

Question: And the IC50 (MCF7 (breast carcinoma); [8])?
Answer: > 50 µM

Question: What about the IC50 [2, 10] of the same compound?
Answer: 12.2 ± 4.7 µM

Question: What about the IC50 [2, 11] of the same compound?
Answer: 10.4 µM and 17.6 µM and 8.7 µM

Question: And the IC50 [3, 12]?
Answer: > 50 µM

Question: And the IC50 at 72 h [4]?
Answer: > 50 µM

Question: And the “Effect on cell cycle” value ([5]; c = 30 µM)?
Answer: increased the number of cells in the G2/M phase

Question: And the “Induction of apoptosis (apoptotic cells)” value ([5]; c = 30 µM)?
Answer: 2.7%

Question: What about the “Effect on cell cycle” value ([6]; c = 3 µM) of the same compound?
Answer: increase of accumulation of the S-phase cells

Question: And the melting point?
Answer: 138 to 139 °C

Question: Which IC50 [1] does the source give for `CC1(C)CCC2(C(=O)NCCc3c[nH]c4ccccc34)CCC3(C)C(=CCC4C5(C)CCC(O)C(C)(C)C5CCC43C)C2C1` (stereo not drawn) [Compound 4a] here?
Answer: > 50 µM

Question: What about the IC50 (MCF7 (breast carcinoma); [8]) of the same compound?
Answer: > 50 µM

Question: What about the IC50 [2, 10] of the same compound?
Answer: > 50 µM

Question: What about the IC50 [2, 11] of the same compound?
Answer: 20.4 µM and > 50 µM (2×)

Question: And the IC50 [3, 12]?
Answer: > 50 µM

Question: What about the IC50 [3, 13] of the same compound?
Answer: > 50 µM (2×) and 19.7 µM

Question: And the IC50 at 72 h [4]?
Answer: > 50 µM

Question: What does the source list for `CC1(C)CCC2(C(=O)NCCc3c[nH]c4ccc(F)cc34)CCC3(C)C(=CCC4C5(C)CCC(O)C(C)(C)C5CCC43C)C2C1` (stereo not drawn) [Compound 4c]?
Answer: IC50 [1]: > 50 µM; IC50 (MCF7 (breast carcinoma); [8]): 13.5 ± 3.3 µM; IC50 (MCF7 (breast carcinoma); [16]): 31.8 µM and > 50 µM and 11.2 µM and 15.8 µM; IC50 [2, 9]: 14.9 µM; IC50 [2, 10]: 20.3 ± 7.6 µM; IC50 [2, 11]: 29 µM and 17.1 µM; IC50 [3, 12]: > 50 µM; IC50 at 72 h [4]: > 50 µM; melting point: 147 to 148 °C
